Measurements as given in patent publication US20250049705A1, “PHARMACEUTICAL COMPOSITION COMPRISING TIGECYCLINE” (ZAMBON S.p.A., priority 2021, published 2025).

How the values were obtained:
[1] = Storage of a solution of tigecycline (degradation in aqueous solution); format: physicochemical; details: degradation by oxidation and epimerization; 24 hours at 5° C., 25° C. and 40° C.
Mycobacterium abscessus = assay: Anti-mycobacterial activity in infected THP-1 macrophages (CFU of cell lysates); format: cell-based
Procedure: Modification of the Dulbecco Eagle medium (Cellgro 15-017-cv) supplemented with: • Heat-inactivated fetal calf serum (Atlas Biologicals, Fort Collins, CO, F-0500-A) (10%) • LCM (10%)
Medium conditioned by L929: L-929 (CCL-1) (ATCC) cells secrete the macrophage colony-stimulating factor (M-CSF), the cytokine that differentiates bone marrow macrophages/monocyte progenitors into a homogeneous population of mature macrophages. They are seeded at 4.7×10^5 cells in 55 ml of DMEM+10% of fetal calf serum in a ball of 75 cm2. Cells are left to grow for 3 days and then the supernatant is collected and filtered through a 0.45 μm filter, aliquoted and frozen at −20° C.
The cell-free filtrate is used in DMEM media. • L-glutamine (Sigma G-7513) (2 mM) • HEPES buffer (Sigma H-0887) (10 mM) Antibiotic/antimycotic (Sigma A-9909) (1×) • non-essential amino acids MEM (Sigma M-7145) (1×) • 2-mercaptoethanol (Sigma M-6250) (50 nM)
THP-1 cells were expanded for 2 weeks.
Complete DMEM media free of antibiotic/antimycotic were not changed during the 3-day test.
On day 0, the media were removed from the cells and replaced with 0.2 mL of antibiotic/antimycotic-free DMEM containing Mycobacterium abscessus at a ratio of 10 bacteria per macrophage.
The tissue culture plates were placed inside closed Ziploc bags and transported to the incubator. Once inside the incubator, the bags were opened. The cells were incubated with the bacteria for 2 hours.
After the infection, the extracellular bacteria were removed by washing each well once with PBS. Then 2 mL of complete DMEM medium free of antibiotics/antimycotics and various drug concentrations were added.
Each drug concentration was tested in triplicate. Culture plates were incubated with antibiotics at 37° C.+5% CO2 for 3 days.

With `CN(C)c1cc(NC(=O)CNC(C)(C)C)c(O)c2c1C[C@H]1C[C@H]3[C@H](N(C)C)C(O)=C(C(N)=O)C(=O)[C@@]3(O)C(O)=C1C2=O` [Pure Tigecycline, tigecycline] the “stability in aqueous solution” value [1] was “extremely unstable”, the “Day 1 CFU” value (Mycobacterium abscessus; pure tigecycline 1 μg/ml) was 287 CFU and the “Day 2 CFU” value (Mycobacterium abscessus; pure tigecycline 1 μg/ml) was 2067 CFU. The “Day 3 CFU” value (Mycobacterium abscessus; pure tigecycline 1 μg/ml) was 2667 CFU, the “Day 1 CFU” value (Mycobacterium abscessus; pure tigecycline 2 μg/ml) was 263 CFU and the “Day 2 CFU” value (Mycobacterium abscessus; pure tigecycline 2 μg/ml) was 203 CFU. The “Day 3 CFU” value (Mycobacterium abscessus; pure tigecycline 2 μg/ml) was 1743 CFU, the “Day 1 CFU” value (Mycobacterium abscessus; pure tigecycline 4 μg/ml) was 427 CFU and the “Day 2 CFU” value (Mycobacterium abscessus; pure tigecycline 4 μg/ml) was 123 CFU. For the same molecule, the “Day 3 CFU” value (Mycobacterium abscessus; pure tigecycline 4 μg/ml) was 267 CFU, the “Day 1 CFU” value (Mycobacterium abscessus; pure tigecycline 8 μg/ml) was 303 CFU and the “Day 2 CFU” value (Mycobacterium abscessus; pure tigecycline 8 μg/ml) was 203 CFU. For the same molecule, the “Day 3 CFU” value (Mycobacterium abscessus; pure tigecycline 8 μg/ml) was 220 CFU, the “Day 1 CFU” value (Mycobacterium abscessus; pure tigecycline 16 μg/ml) was 333 CFU and the “Day 2 CFU” value (Mycobacterium abscessus; pure tigecycline 16 μg/ml) was 203 CFU. For the same molecule, the “Day 3 CFU” value (Mycobacterium abscessus; pure tigecycline 16 μg/ml) was 153 CFU, the “Day 1 CFU” value (Mycobacterium abscessus; pure tigecycline 24 μg/ml) was 287 CFU and the “Day 2 CFU” value (Mycobacterium abscessus; pure tigecycline 24 μg/ml) was 90 CFU. For the same molecule, the “Day 3 CFU” value (Mycobacterium abscessus; pure tigecycline 24 μg/ml) was 143 CFU.
